Laboratory results from paper PMC11642981, “Bioguided Identification of Polymethoxyflavones as Novel Vascular CaV1.2 Channel Blockers from Citrus Peel” (Molecules, 2024).
Where two headings read alike, the source gives them in different places.

Columns and labels:
Format in all cases: cell-based
[1] = target: T1, CaV1.2 channel (α1C subunit) (Rattus norvegicus, UniProt P22002); experiment: whole-cell patch-clamp, complete block of IBa1.[…] at […]
T1 construct: gene Cacna1c; native channel in freshly isolated rat tail artery myocytes
T1 sequence (P22002 whole entry): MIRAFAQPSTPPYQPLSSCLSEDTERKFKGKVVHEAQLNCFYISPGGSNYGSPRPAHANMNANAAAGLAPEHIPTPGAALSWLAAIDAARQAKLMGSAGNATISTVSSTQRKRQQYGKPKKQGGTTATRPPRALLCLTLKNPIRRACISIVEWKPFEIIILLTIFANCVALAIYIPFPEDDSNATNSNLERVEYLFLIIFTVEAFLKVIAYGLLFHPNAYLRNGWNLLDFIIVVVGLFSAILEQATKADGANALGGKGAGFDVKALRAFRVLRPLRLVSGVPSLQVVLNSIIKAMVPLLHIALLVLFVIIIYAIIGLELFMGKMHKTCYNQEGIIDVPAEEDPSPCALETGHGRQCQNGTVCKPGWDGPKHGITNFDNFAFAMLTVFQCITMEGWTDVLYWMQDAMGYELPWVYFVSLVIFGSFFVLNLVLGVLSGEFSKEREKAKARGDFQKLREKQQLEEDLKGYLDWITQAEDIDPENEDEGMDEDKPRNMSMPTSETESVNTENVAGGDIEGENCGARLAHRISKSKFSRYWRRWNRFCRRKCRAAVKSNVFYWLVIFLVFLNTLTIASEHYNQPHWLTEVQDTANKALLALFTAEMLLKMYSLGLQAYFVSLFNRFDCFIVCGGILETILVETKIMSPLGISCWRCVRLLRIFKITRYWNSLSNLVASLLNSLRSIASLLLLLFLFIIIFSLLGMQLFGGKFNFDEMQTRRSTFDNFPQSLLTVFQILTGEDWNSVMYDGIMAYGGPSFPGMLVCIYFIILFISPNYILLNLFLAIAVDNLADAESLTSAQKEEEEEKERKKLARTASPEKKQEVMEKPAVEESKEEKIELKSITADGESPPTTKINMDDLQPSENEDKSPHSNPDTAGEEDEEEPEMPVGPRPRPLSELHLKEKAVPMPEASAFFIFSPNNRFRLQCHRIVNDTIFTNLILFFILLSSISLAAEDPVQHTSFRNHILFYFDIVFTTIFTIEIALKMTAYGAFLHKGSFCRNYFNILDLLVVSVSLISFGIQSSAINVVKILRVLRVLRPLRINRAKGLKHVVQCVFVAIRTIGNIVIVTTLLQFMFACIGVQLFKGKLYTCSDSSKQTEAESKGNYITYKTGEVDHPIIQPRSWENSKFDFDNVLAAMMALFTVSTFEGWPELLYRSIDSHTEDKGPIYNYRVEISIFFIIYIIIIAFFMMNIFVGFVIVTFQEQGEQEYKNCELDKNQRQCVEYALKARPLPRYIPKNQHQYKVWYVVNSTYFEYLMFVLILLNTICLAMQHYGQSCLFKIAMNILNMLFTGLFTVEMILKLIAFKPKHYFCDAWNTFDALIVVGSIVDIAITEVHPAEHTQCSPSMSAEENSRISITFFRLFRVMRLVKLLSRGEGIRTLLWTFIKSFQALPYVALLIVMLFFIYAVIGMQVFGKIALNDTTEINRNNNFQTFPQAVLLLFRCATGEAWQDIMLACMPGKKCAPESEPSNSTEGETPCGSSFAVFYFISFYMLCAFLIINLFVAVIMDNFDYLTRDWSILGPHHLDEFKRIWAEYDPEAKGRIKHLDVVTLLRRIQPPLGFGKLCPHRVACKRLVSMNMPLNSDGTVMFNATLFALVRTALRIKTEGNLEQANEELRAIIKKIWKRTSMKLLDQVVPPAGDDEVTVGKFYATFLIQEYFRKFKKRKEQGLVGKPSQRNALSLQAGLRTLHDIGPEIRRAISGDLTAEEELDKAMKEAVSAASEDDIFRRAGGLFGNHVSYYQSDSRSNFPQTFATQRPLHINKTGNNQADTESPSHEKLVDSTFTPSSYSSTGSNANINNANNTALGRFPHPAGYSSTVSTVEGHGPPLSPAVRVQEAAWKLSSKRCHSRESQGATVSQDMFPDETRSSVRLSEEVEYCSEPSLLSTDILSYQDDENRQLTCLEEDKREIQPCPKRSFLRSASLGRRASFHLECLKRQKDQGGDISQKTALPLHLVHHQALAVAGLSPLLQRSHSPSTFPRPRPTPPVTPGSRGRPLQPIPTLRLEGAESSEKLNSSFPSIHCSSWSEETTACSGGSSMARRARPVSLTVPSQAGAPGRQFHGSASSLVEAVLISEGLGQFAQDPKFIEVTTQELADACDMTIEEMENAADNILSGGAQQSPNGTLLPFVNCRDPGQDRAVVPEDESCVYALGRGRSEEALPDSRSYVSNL

[2] = target: T1, CaV1.2 channel (α1C subunit); experiment: whole-cell patch-clamp, Ba2+ current (IBa1.[…]); conditions: read-out: % reduction in current amplitude at 100 μM
[3] = target: T1, CaV1.2 channel (α1C subunit); experiment: whole-cell patch-clamp, Ba2+ current (IBa1.[…])

Compound: COC(=O)C1=C(C)NC(C)=C(C(=O)OC)C1c1ccccc1[N+](=O)[O-] [nifedipine]
- whole-cell patch-clamp, complete block of IBa1.2 at 10 μM [1]: 10 µM (completely blocked IBa1.2)

Compound: COc1ccc(-c2cc(=O)c3c(OC)c(OC)c(OC)c(OC)c3o2)cc1OC [nobiletin]
- inhibition at 100 µM [2]: 50%

Compound: COc1ccc(-c2cc(=O)c3c(OC)c(OC)c(OC)cc3o2)cc1 [scutellarein tetramethyl ether]
- IC50 [3]: ~33.1 µM

Compound: COc1ccc(-c2cc(=O)c3c(OC)c(OC)c(OC)cc3o2)cc1OC [sinensetin]
- inhibition at 100 µM [2]: 50%

Compound: COc1ccc(-c2cc(=O)c3c(OC)c(OC)c(OC)c(OC)c3o2)cc1 [tangeretin]
- IC50 ([3]; read-out: IC50 (converted)): ~66.1 µM
